Results from PMC6264176, “Cholesterol-Lowering Activity of the Major Polyphenols in Grape Seed” (Molecules, 2011).

Target: T1, pancreatic cholesterol esterase (Sus scrofa, UniProt A0A286ZKB1)
T1 construct: gene CEL
T1 sequence (A0A286ZKB1 96-682): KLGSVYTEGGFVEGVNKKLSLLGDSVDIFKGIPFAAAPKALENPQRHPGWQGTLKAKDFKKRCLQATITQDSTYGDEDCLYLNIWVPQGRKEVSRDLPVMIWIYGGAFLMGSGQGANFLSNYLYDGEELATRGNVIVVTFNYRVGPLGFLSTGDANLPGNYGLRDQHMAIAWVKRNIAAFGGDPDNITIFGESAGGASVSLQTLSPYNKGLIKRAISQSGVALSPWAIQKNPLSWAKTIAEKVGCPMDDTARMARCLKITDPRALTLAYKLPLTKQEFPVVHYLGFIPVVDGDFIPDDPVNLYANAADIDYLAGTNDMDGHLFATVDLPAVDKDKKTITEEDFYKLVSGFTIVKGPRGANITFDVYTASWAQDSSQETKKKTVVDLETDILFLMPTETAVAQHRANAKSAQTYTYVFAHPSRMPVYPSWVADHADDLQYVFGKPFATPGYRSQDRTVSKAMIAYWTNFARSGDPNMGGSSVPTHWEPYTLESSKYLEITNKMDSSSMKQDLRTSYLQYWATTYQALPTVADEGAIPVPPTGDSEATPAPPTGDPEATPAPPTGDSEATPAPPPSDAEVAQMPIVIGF
Experiment: p-NPB hydrolysis by porcine pancreatic cholesterol esterase, absorbance at […] nm, with taurocholic acid
Assay type: biochemical

Row | Structure (SMILES) | IC50 [µM]
1 | Oc1cc(O)c2c(c1)OC(c1ccc(O)c(O)c1)C(O)C2 (single isomer, unassigned; (+)) [(+)-Catechin] | > 345
2 | Oc1cc(O)c2c(c1)O[C@H](c1ccc(O)c(O)c1)[C@H](O)C2 [(–)-epicatechin] | > 345
3 | O=C(O)c1cc(O)c(O)c(O)c1 [gallic acid] | > 588
